Data from patent publication US12577223B2, “Processes for preparing 2-(4-chlorophenyl)-n-((2-(2,6-dioxopiperidin-3-yl)-1-oxoisoindolin-5-yl)methyl)-2,2-difluoroacetamide” (Celgene Corporation, priority 2019, dated 2026).

Test: dynamic vapor sorption (DVS) analysis
Type: physicochemical
Settings: relative humidity increased from about 0% to about 90% RH
From the text: FIG. 5 provides a DVS isotherm plot of polymorph Form C of 2-(4-chlorophenyl)-N-((2-(2,6-dioxopiperidin-3-yl)-1-oxoisoindolin-5-yl)methyl)-2,2-difluoroacetamide.
In certain embodiments, polymorph Form C is characterized by dynamic vapor sorption analysis. A representative dynamic vapor sorption (DVS) isotherm plot is shown in
FIG. 5. […] In certain embodiments, polymorph Form C comprises less than 0.1% water as determined in a coulometric Karl Fischer (KF) titrator equipped with an oven sample processor set at 225° C.

## O=C1CCC(N2Cc3cc(CNC(=O)C(F)(F)c4ccc(Cl)cc4)ccc3C2=O)C(=O)N1 (stereo not shown) [polymorph Form C, 2-(4-chlorophenyl)-N-((2-(2,6-dioxopiperidin-3-yl)-1-oxoisoindolin-5-yl)methyl)-2,2-difluoroacetamide]
  water uptake: about 0.6 % w/w
